# Target: recombinant human integrin αvβ6 (Homo sapiens (Human), UniProt P06756+P18564)
# Experiment: Solid Phase Integrin αvβ6 Binding Assay (Examples B1, B2)
# Settings: TGFβ1 LAP ligand, values given in four ranges, read-out: αvβ6 Inhibition IC50 (nM)-range
# Procedure: (§1) Microplates were coated with recombinant human integrin αvβ6 (2 μg/mL) in PBS (100 μL/well 25° C., overnight). The coating solution was removed, washed with wash buffer (0.05% Tween 20; 0.5 mM MnCl2; in 1×TBS). The plate was blocked with 200 μL/well of Block Buffer (1% BSA; 5% sucrose; 0.5 mM MnCl2; in 1×TBS) at 37° C. for 2 h. Dilutions of testing compounds and recombinant TGFβ1 LAP (0.67 μg/mL) in binding buffer (0.05% BSA; 2.5% sucrose; 0.5 mM MnCl2; in 1×TBS) were added. The plate was incubated for 2 hours at 25° C., washed, and incubated for 1 hour with Biotin-Anti-hLAP. Bound antibody was detected by peroxidase-conjugated streptavidin. The IC50 values for testing compounds were calculated by four-parameter logistic regression.
# The compounds tested were compound samples prepared according to procedures described in the Synthetic Examples section, with the stereochemical purity as indicated in the Examples.
# as §1, with “A third series of exemplary compounds was selected for testing in the solid phase integrin αvβ6 binding assay. The compounds tested were compound samples prepared according to procedures described in the Synthetic Examples section, with the stereochemical purity as indicated in the Examples. As in Example B1, microplates were coated” for “Microplates were coated”, “calculated by a four-parameter logistic” for “calculated by four-parameter logistic”
# recombinant human integrin αvβ6, sequence (P06756 31-992): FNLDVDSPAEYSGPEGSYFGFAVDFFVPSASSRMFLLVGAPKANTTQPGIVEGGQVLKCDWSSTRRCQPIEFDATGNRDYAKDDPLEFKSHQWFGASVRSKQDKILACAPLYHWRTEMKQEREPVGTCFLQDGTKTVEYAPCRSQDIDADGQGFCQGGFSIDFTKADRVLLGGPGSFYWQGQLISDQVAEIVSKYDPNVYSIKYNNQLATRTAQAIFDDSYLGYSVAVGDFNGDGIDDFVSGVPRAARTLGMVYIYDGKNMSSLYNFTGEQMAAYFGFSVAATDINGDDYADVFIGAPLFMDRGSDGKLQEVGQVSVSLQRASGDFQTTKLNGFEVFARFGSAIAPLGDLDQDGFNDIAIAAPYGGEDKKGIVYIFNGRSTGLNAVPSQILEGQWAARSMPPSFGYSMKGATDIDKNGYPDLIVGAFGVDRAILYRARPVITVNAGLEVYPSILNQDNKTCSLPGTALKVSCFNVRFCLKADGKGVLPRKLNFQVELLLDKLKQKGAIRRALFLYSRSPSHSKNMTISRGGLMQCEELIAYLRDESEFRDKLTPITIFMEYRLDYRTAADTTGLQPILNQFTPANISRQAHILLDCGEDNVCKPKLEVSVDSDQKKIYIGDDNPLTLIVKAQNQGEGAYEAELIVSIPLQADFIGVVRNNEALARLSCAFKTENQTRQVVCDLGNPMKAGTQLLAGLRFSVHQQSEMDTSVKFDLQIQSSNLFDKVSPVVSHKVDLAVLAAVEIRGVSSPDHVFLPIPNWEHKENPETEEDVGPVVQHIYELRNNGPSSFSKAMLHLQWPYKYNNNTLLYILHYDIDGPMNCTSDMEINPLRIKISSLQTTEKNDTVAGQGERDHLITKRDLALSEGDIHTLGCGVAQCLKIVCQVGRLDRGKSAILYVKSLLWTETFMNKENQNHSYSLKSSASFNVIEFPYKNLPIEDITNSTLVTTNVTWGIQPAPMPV
# recombinant human integrin αvβ6, sequence (P18564 22-707): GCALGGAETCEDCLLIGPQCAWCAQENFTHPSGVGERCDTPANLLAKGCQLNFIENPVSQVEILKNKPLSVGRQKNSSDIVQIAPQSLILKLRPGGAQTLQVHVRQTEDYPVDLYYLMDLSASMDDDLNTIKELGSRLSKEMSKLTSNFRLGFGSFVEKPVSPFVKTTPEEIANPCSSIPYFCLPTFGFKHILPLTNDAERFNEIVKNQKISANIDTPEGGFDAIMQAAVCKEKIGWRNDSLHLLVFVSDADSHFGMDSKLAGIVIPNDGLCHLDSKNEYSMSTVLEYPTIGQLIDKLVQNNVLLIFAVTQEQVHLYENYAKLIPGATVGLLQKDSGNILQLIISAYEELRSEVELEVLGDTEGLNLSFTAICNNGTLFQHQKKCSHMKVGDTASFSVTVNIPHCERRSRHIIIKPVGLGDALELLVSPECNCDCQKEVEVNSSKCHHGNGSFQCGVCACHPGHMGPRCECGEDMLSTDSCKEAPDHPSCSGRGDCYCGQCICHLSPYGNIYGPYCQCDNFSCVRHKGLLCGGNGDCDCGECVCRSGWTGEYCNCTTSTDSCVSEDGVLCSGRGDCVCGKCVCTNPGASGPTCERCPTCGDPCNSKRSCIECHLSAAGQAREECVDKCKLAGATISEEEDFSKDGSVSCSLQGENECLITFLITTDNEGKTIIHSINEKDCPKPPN
row,Compound,IC50
1,"O=C(O)[C@H](CCN(CCCCc1ccc2c(n1)NCCC2)C1CC(F)(F)C1)Nc1ncnc2ccccc12 [Compound 9, (S)-4-((3,3-difluorocyclobutyl) (4-(5,6,7,8-tetrahydro-1,8-naphthyridin-2-yl)butyl)amino)-2-(quinazolin-4-ylamino) butanoic acid]",> 1000 nM
2,"COCCN(CCCCc1ccc2c(n1)NCCC2)CC[C@H](Nc1ncnc2ncccc12)C(=O)O [Compound 11, (S)-4-((2-methoxyethyl) (4-(5,6,7,8-tetrahydro-1,8-naphthyridin-2-yl)butyl)amino)-2-(pyrido[2,3-d]pyrimidin-4-ylamino) butanoic acid]",< 50 nM
3,"COCCN(CCCCc1ccc2c(n1)NCCC2)CC[C@H](Nc1ncnc2cccnc12)C(=O)O [Compound 16, (S)-4-((2-methoxyethyl) (4-(5,6,7,8-tetrahydro-1,8-naphthyridin-2-yl)butyl)amino)-2-(pyrido[3,2-d]pyrimidin-4-ylamino) butanoic acid]",< 50 nM
4,"COCCN(CCCCc1ccc2c(n1)NCCC2)CC[C@H](Nc1ncnc2cnccc12)C(=O)O [Compound 17, (S)-4-((2-methoxyethyl) (4-(5,6,7,8-tetrahydro-1,8-naphthyridin-2-yl)butyl)amino)-2-(pyrido[3,4-d]pyrimidin-4-ylamino) butanoic acid]",< 50 nM
5,"COCCN(CCCCc1ccc2c(n1)NCCC2)CC[C@H](Nc1ncnc2ccc(F)cc12)C(=O)O [Compound 19, (S)-2-((6-fluoroquinazolin-4-yl)amino)-4-((2-methoxyethyl) (4-(5,6,7,8-tetrahydro-1,8-naphthyridin-2-yl)butyl)amino) butanoic acid]",< 50 nM
6,"COCCN(CCCCc1ccc2c(n1)NCCC2)CC[C@H](Nc1ncnc2cc(F)c(F)cc12)C(=O)O [Compound 21, (S)-2-((6,7-difluoroquinazolin-4-yl)amino)-4-((2-methoxyethyl) (4-(5,6,7,8-tetrahydro-1,8-naphthyridin-2-yl)butyl)amino) butanoic acid]",< 50 nM
7,"COCCN(CCCCc1ccc2c(n1)NCCC2)CC[C@H](Nc1cc(C(F)(F)F)nc(C)n1)C(=O)O [Compound 22, (S)-4-((2-methoxyethyl) (4-(5,6,7,8-tetrahydro-1,8-naphthyridin-2-yl)butyl)amino)-2-((2-methyl-6-(trifluoromethyl)pyrimidin-4-yl)amino) butanoic acid]",< 50 nM
8,"COCCN(CCCCc1ccc2c(n1)NCCC2)CC[C@H](Nc1cc(C(F)F)ncn1)C(=O)O [Compound 23, (S)-2-((6-(difluoromethyl)pyrimidin-4-yl)amino)-4-((2-methoxyethyl) (4-(5,6,7,8-tetrahydro-1,8-naphthyridin-2-yl)butyl)amino) butanoic acid]",< 50 nM
9,"CO[C@@H](C)CN(CCCCc1ccc2c(n1)NCCC2)CC[C@H](Nc1ncnc2ccccc12)C(=O)O [Compound 25, (S)-4-(((S)-2-methoxypropyl) (4-(5,6,7,8-tetrahydro-1,8-naphthyridin-2-yl)butyl)amino)-2-(quinazolin-4-ylamino) butanoic acid]",< 50 nM
10,"CS(=O)(=O)CCN(CCCCc1ccc2c(n1)NCCC2)CC[C@H](Nc1ncnc2ccccc12)C(=O)O [Compound 27, (S)-4-((2-(methylsufonyl)ethyl) (4-(5,6,7,8-tetrahydro-1,8-naphthyridin-2-yl)butyl)amino)-2-(quinazolin-4-ylamino) butanoic acid]",< 50 nM
11,"O=C(O)[C@H](CCN(CCCCc1ccc2c(n1)NCCC2)CCOc1ccccc1)Nc1ncnc2ccccc12 [Compound 28, (S)-4-((2-phenoxyethyl) (4-(5,6,7,8-tetrahydro-1,8-naphthyridin-2-yl)butyl)amino)-2-(quinazolin-4-ylamino) butanoic acid]",< 50 nM
12,"O=C(O)[C@H](CCN(CCCCc1ccc2c(n1)NCCC2)CCC(F)F)Nc1ncnc2ccccc12 [Compound 29, (S)-4-((3,3-difluoropropyl) (4-(5,6,7,8-tetrahydro-1,8-naphthyridin-2-yl)butyl)amino)-2-(quinazolin-4-ylamino) butanoic acid]",< 50 nM
13,"O=C(O)[C@H](CCN(CCCF)CCCCc1ccc2c(n1)NCCC2)Nc1ncnc2ccccc12 [Compound 30, (S)-4-((3-fluoropropyl) (4-(5,6,7,8-tetrahydro-1,8-naphthyridin-2-yl)butyl)amino)-2-(quinazolin-4-ylamino) butanoic acid]",< 50 nM
14,"COC[C@@H](F)CN(CCCCc1ccc2c(n1)NCCC2)CC[C@H](Nc1ncnc2ccccc12)C(=O)O [Compound 31, (S)-4-(((S)-2-fluoro-3-methoxypropyl) (4-(5,6,7,8-tetrahydro-1,8-naphthyridin-2-yl)butyl)amino)-2-(quinazolin-4-ylamino) butanoic acid]",< 50 nM
15,"COC[C@@H](F)CN(CCCCc1ccc2c(n1)NCCC2)CC[C@H](Nc1nc(C)nc2cc(F)ccc12)C(=O)O [Compound 32, (S)-2-((7-fluoro-2-methylquinazolin-4-yl)amino)-4-(((S)-2-fluoro-3-methoxypropyl) (4-(5,6,7,8-tetrahydro-1,8-naphthyridin-2-yl)butyl)amino) butanoic acid]",< 50 nM
16,"Cc1nc(N[C@@H](CCN(CCCCc2ccc3c(n2)NCCC3)CC2CC(F)(F)C2)C(=O)O)c2ccc(F)cc2n1 [Compound 33, (S)-4-(((3,3-difluorocyclobutyl)methyl) (4-(5,6,7,8-tetrahydro-1,8-naphthyridin-2-yl)butyl)amino)-2-((7-fluoro-2-methylquinazolin-4-yl)amino) butanoic acid]",< 50 nM

# Now from value to compound:
row,IC50,Compound
1,< 50 nM,"COCCN(CCCCc1ccc2c(n1)NCCC2)CC[C@H](Nc1ncnc2cc(F)ccc12)C(=O)O [Compound 7, (S)-2-((7-fluoroquinazolin-4-yl)amino)-4-((2-methoxyethyl) (4-(5,6,7,8-tetrahydro-1,8-naphthyridin-2-yl)butyl)amino) butanoic acid]"
2,< 50 nM,"COCCN(CCCCc1ccc2c(n1)NCCC2)CC[C@H](Nc1nc(C)nc2ccccc12)C(=O)O [Compound 10, (S)-4-((2-methoxyethyl) (4-(5,6,7,8-tetrahydro-1,8-naphthyridin-2-yl)butyl)amino)-2-((2-methylquinazolin-4-yl)amino) butanoic acid]"
3,< 50 nM,"COCCN(CCCCc1ccc2c(n1)NCCC2)CC[C@H](Nc1nc(C)nc2cc(F)ccc12)C(=O)O [Compound 12, (S)-2-((7-fluoro-2-methylquinazolin-4-yl)amino)-4-((2-methoxyethyl) (4-(5,6,7,8-tetrahydro-1,8-naphthyridin-2-yl)butyl)amino) butanoic acid]"
4,< 50 nM,"COCCN(CCCCc1ccc2c(n1)NCCC2)CC[C@H](Nc1nc(C(F)(F)F)nc2ccccc12)C(=O)O [Compound 14, (S)-4-((2-methoxyethyl) (4-(5,6,7,8-tetrahydro-1,8-naphthyridin-2-yl)butyl)amino)-2-((2-(trifluoromethyl)quinazolin-4-yl)amino) butanoic acid]"
5,< 50 nM,"COCCN(CCCCc1ccc2c(n1)NCCC2)CC[C@H](Nc1ncnc2c(C(F)(F)F)cccc12)C(=O)O [Compound 15, (S)-4-((2-methoxyethyl) (4-(5,6,7,8-tetrahydro-1,8-naphthyridin-2-yl)butyl)amino)-2-((8-(trifluoromethyl)quinazolin-4-yl)amino) butanoic acid]"
6,< 50 nM,"COCCN(CCCCc1ccc2c(n1)NCCC2)CC[C@H](Nc1ncnc2cccc(F)c12)C(=O)O [Compound 18, (S)-2-((5-fluoroquinazolin-4-yl)amino)-4-((2-methoxyethyl) (4-(5,6,7,8-tetrahydro-1,8-naphthyridin-2-yl)butyl)amino) butanoic acid]"
7,< 50 nM,"COCCN(CCCCc1ccc2c(n1)NCCC2)CC[C@H](Nc1ncnc2c(F)cccc12)C(=O)O [Compound 20, (S)-2-((8-fluoroquinazolin-4-yl)amino)-4-((2-methoxyethyl) (4-(5,6,7,8-tetrahydro-1,8-naphthyridin-2-yl)butyl)amino) butanoic acid]"
8,< 50 nM,"COCCN(CCCCc1ccc2c(n1)NCCC2)CC[C@H](Nc1ccnc(C(F)(F)F)n1)C(=O)O [Compound 24, (S)-4-((2-methoxyethyl) (4-(5,6,7,8-tetrahydro-1,8-naphthyridin-2-yl)butyl)amino)-2-((2-(trifluoromethyl)pyrimidin-4-yl)amino) butanoic acid]"
9,< 50 nM,"COCCN(CCCCc1ccc2c(n1)NCCC2)CC[C@H](Nc1cc(C)nc(C(F)(F)F)n1)C(=O)O [Compound 26, (S)-4-((2-methoxyethyl) (4-(5,6,7,8-tetrahydro-1,8-naphthyridin-2-yl)butyl)amino)-2-((6-methyl-2-(trifluoromethyl)pyrimidin-4-yl)amino) butanoic acid]"

# — patent publication US11419869B2, “Dosage forms and regimens for amino acid compounds” (Pliant Therapeutics, Inc., priority 2019, dated 2022)
